In patent publication US20220226298A1, “GPR40 AGONISTS” (Kallyope, Inc., priority 2019, published 2022) one finds concentration and EC50 data, which are given here for five compounds.

Data set [1] in a line: In vivo plasma levels in mice. To be noted: mouse, oral, 30 mg/kg; male C57BL/6J mice, dose 30 mpk, plasma concentration of test article (parent) 30 min post dose; read-out: 30 min Exposure: Parent. As for the experimental part: Male C57BL/6J mice 10-12 weeks old were acclimated to dosing (e.g., oral gavage) 2-3 times prior to the study. On the day of the study, food was removed for 5-6 hours, then the mice were dosed with test article or vehicle (e.g., by oral gavage at a volume of 10 mL/kg). Animals were euthanized with carbon dioxide typically 30 min post dose. Blood was collected via cardiac puncture for measurement of plasma concentrations of test article (parent) or metabolite resulting from ester cleavage.

For data set [2], the target named is T1, human GPR40 (Homo sapiens, UniProt O14842).
T1 construct: host or cells: CHO-K1
T1 sequence (O14842 whole entry): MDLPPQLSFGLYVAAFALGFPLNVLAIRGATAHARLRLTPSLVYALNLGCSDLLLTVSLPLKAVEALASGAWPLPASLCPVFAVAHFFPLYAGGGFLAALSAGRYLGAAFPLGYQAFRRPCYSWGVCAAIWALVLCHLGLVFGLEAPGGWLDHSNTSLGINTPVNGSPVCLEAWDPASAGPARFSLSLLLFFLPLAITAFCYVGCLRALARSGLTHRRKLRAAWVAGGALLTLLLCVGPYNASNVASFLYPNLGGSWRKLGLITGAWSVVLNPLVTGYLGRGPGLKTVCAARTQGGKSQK
Kind of data set: Inositol phosphate accumulation assay (IP1 HTRF) in CHO-K1 cells expressing human GPR40. Format: cell-based. Particulars: 90 min stimulation. The method, then:
CHO-KI cells expressing human GPR40 were purchased from DiscoverX (95-1005C2). HEK293 cells expressing mouse FFAR1 were prepared using a mouse FFAR1 carrying plasmid purchased from OriGene Technologies (MR222997). The cells were transfected using Lipofectamine 2000 using manufacturer instructions and stable cell line was established from a single cell using geneticine selection. Assay ready frozen (ARF) cells were prepared and used throughout the study.
The assay was performed in a 384-well plate format using IP1 assay kit from Cis-Bio. ARF cells expressing FFAR1 (mouse and human) were thawed, washed and then plated in the appropriate medium (F12 based medium for CHO hFFAR1 and DMEM based medium for HEK293 mFFAR1—both were supplemented with 10% FBS and penicillin/streptomycin). 20 μL of 3.5×10^5 cells/mL were plated on a Poly D-Lysine coated 384-well white plate. The cells were then incubated for 16 hr at 37° C./5% CO2. After 16 hr the medium was removed and 15 μL of stimulation buffer containing the test compounds was added to the cells. The plates were then incubated for 90 min at 37° C./5% CO2. 5 μL of detection buffer (prepared as described in the IP-one kit) was added to each well and the plates were incubated at RT for 1 hr.
[…] was measured using ClarioSTAR plate reader, calculating the ratio between emissions at 665 nm and 620 nm (HTRF ratio). HTRF ratio for positive (Max) and negative (Min) controls were used to normalize HTRF data and generate values for % activity. EC50 and Max activity values were determined using a standard 4-parameter fit.
A general note: In TR-FRET formats the signal depends on donor and acceptor labels being close together.

`COc1cc(-c2ccc(C(=O)Oc3cccc([C@@H](CC(=O)O)C4CC4)c3)cc2CN(C(C)C)C(C)C)c(F)cn1` [Compound 15, (S)-3-cyclopropyl-3-(3-((3-((diisopropylamino)methyl)-4-(5-fluoro-2-methoxypyridin-4-yl)benzoyl)oxy)phenyl)propanoic acid]: the concentration at 30 min in data set [1] was under 2 nM. The compound also showed an EC50 in data set [2] of at most 10 nM.

In the case of `COc1cc(-c2ccc(C(=O)Oc3cccc([C@H](C4CC4)[C@@](C)(F)C(=O)O)c3)cc2CN(C(C)C)C(C)C)c(F)cn1` [Compound 36, (2R,3S)-3-cyclopropyl-3-(3-((3-((diisopropylamino)methyl)-4-(5-fluoro-2-methoxypyridin-4-yl)benzoyl)oxy)phenyl)-2-fluoro-2-methylpropanoic acid], the concentration at 30 min in data set [1] was under 5 nM. Also, the EC50 in data set [2] is at most 10 nM. `COc1cc(-c2ccc(C(=O)Oc3cccc([C@H](C4CC4)[C@H](C)C(=O)O)c3)cc2CN(C(C)C)C(C)C)c(F)cn1` [Compound 26, (2S,3R)-3-cyclopropyl-3-(3-((3-((diisopropylamino)methyl)-4-(5-fluoro-2-methoxypyridin-4-yl)benzoyl)oxy)phenyl)-2-methylpropanoic acid]: the concentration at 30 min in data set [1] is under 2 nM. The compound further gave an EC50 in data set [2] of at most 10 nM. Turning to `COc1cc(-c2ccc(C(=O)Oc3cccc([C@H](C4CC4)[C@H](C)C(=O)OCCP(=O)(O)O)c3)cc2CN(C(C)C)C(C)C)c(F)cn1` [Compound 68, (2-(((2S, 3R)-3-cyclopropyl-3-(3-((3-((diisopropylamino)methyl)-4-(5-fluoro-2-methoxypyridin-4-yl)benzoyl)oxy)phenyl)-2-methylpropanoyl)oxy)ethyl)phosphonic acid], the EC50 in data set [2] is 100 to 500 nM. The same measure, in the same setting: as for `COc1cc(-c2cc(C)c(C(=O)Oc3cccc([C@@H](CP(C)(=O)O)C4CC4)c3)cc2CN(C(C)C)C(C)C)c(F)cn1` (single isomer, unassigned) [Compound 71b], the figure is over 500 nM.

A word on the EC50: it is the concentration that produces a half-maximal response. High values mean a need for much substance, low ones an effect from little substance.
